These results are taken from publication PMC6269887, “Novel Substituted Heteroaromatic Piperazine and Piperidine Derivatives as Inhibitors of Human Enterovirus 71 and Coxsackievirus A16” (Molecules, 2013).

Series [1] relates to EV71. Nature of the series: Neutralization test: inhibition of EV71-induced CPE on Vero cells. The format is cell-based, Enterovirus 71 (Shenzhen 98, shzh01-8). To be noted: for IC50: CPE on Vero cells, 100 TCID50, Reed-Muench; for EV71 SI: selectivity index. As for the experimental part:
(§1) The anti-EV71 activity, anti-CVA16 activity, and cytotoxicity of the compounds on the EV71 test strain (Shenzhen 98, shzh01-8) and CVA16 (laboratory viral culture) were evaluated by using cell culture cytopathic effect assays.
(§2) This assay measured the ability of the test compounds to inhibit the CPE induced by EV71 and CVA16 on Vero cells. The 96-well tissue culture plates were seeded with 20,000 Vero cells/mL. The plates were incubated for 24 h at 37 °C. The virus (100 TCID50) mixed with different concentrations of the test compounds was added to the cells, which were incubated at 37 °C for 2 h. After adsorption, the infected cells were overlaid with 50 μL of Dulbecco’s modified Eagle’s medium with 5% fetal bovine serum, and 2% DMSO. […] All assays were performed in triplicate.

The test system of the next series is Vero cells. Nature of the series: Cytotoxicity assay on Vero cells. In kind it is cell-based. To be noted: for TC50: 96 h, concentration reducing cell viability to 50%. As for the experimental part:
The Vero cells treated with the test compounds were incubated at 37 °C for 96 h. After incubation, the cells were harvested and counted.

In the next series the test system is CVA16. Nature of the series: Neutralization test: inhibition of CVA16-induced CPE on Vero cells. To be noted: for IC50: CPE on Vero cells, 100 TCID50, Reed-Muench; for CVA16 SI: selectivity index. In kind it is cell-based, Coxsackievirus A16 (laboratory viral culture). As for the experimental part:
as §1, §2

Details of series [2]: method as in PMID 23519203. To be noted: pirodavir; cited from earlier work.
The test system of series [3] is EV71. Further details: method as in PMID 23519203. To be noted: pirodavir; cited from earlier work.

“And” between values parts separate entries of the source, which are not always exact repeats. Equal values may be shown once. Read-outs that look alike come from different tables or passages of the source.

`CCCCc1ccc(OCCN2CCN(c3cc(Cl)nnc3Cl)CC2)cc1` [Compound 9a]: in the series on EV71 [1] (Enterovirus A, EV71, Vero), the IC50 was found to be 1.2 µM. Also, the “EV71 SI” value in the series on EV71 [1] stood at 16.1. Also, in the series with Vero cells, the TC0 amounted to 7.7 ± 0.3 µM and the TC50 is 19.2 ± 0.7 µM. This compound also displayed an IC50 with CVA16 (Enterovirus A, CVA16, Vero) of 1.4 ± 0.1 µM. Further, in the series with CVA16, the “CVA16 SI” value is given as 13.8.
In the case of `CCOC(=O)c1ccc(OCCC2CCN(c3ccnnc3Cl)CC2)nc1` [Compound 9f], half-maximal inhibition in the series on EV71 [1] (Enterovirus A, EV71, Vero) (IC50) required 25.4 ± 1.7 µM. The “EV71 SI” value with EV71 [1] is reported as greater than 20.2. Also, in the series on Vero cells, the TC0 was found to be 128 ± 9.5 µM and the TC50 is greater than 512 µM. Moreover, the IC50 with CVA16 (Enterovirus A, CVA16, Vero) was 16 ± 0.9 µM. Besides, in the series with CVA16, the “CVA16 SI” value is given as greater than 32.0.
On to `CCOc1ccc(OCCCCCCN2CCN(c3nccs3)CC2)cc1.Cl` [Compound 8c, 2-(4-(6-(4-Ethoxyphenoxy)hexyl)piperazin-1-yl)thiazole hydrochloride], for which the melting point fell in the range of 222 to 224 °C. In addition, the IC50 in the series on EV71 [1] (Enterovirus A, EV71, Vero) amounted to 4.3 ± 0.1 µM. Moreover, the “EV71 SI” value with EV71 [1] was found to be 12.7. In the series with Vero cells, this compound had a TC0 of 6.8 ± 0.1 µM and a TC50 of 54.1 ± 8.1 µM. For the same compound, in the series with CVA16 (Enterovirus A, CVA16, Vero), the IC50 turned out to be 6.8 ± 0.4 µM. Also, the “CVA16 SI” value in the series on CVA16 turned out to be 8.0.
In the series on EV71 [1] (Enterovirus A, EV71, Vero), `CCOc1ccc(OCCN2CCN(c3cc(Cl)nnc3Cl)CC2)cc1` [Compound 9c] registered an IC50 greater than 31.5 µM. In the series with Vero cells, this compound had a TC0 of 31.5 ± 2.1 µM and a TC50 of 62.9 ± 2.4 µM. Half-maximal inhibition in the series on CVA16 (Enterovirus A, CVA16, Vero) (IC50) required 10.8 ± 0.3 µM. The “CVA16 SI” value in the series on CVA16 was found to be 5.8.
With `CCOC(=O)c1ccc(OCCC2CCN(c3ccc(C)nn3)CC2)cc1` [pirodavir], the TC50 in series [2] was 31 ± 2.2 µM. In the series with EV71 [3], the IC50 is 1.2 ± 0.2 µM and the SI is 25.
As for `CCOc1ccc(OCCCCCN2CCN(c3nccs3)CC2)cc1` [Compound 8b, 2-(4-(5-(4-Ethoxyphenoxy)pentyl)piperazin-1-yl)thiazole], the melting point was in the range of 79 to 81 °C. The same compound showed an IC50 in the series with EV71 [1] (Enterovirus A, EV71, Vero) of 21 ± 1.2 µM. The “EV71 SI” value with EV71 [1] worked out at 3.2. In the series with Vero cells, this compound gave a TC0 of 33.3 ± 3.9 µM and a TC50 of 66.6 ± 1.0 µM. In addition, the IC50 in the series on CVA16 (Enterovirus A, CVA16, Vero) came out at 5.3 ± 0.3 µM. Besides, the “CVA16 SI” value in the series with CVA16 came out at 12.7.
Consider `Clc1cc(N2CCN(CCOc3ccc(-n4cnnc4)cc3)CC2)c(Cl)nn1` [Compound 9b], for which the IC50 with EV71 [1] (Enterovirus A, EV71, Vero) is 21.6 ± 1.4 µM; in the series with CVA16, greater than 29.7 µM; in the series on CVA16 (Enterovirus A, CVA16, Vero) it was greater than 29.7 µM. Besides, the “EV71 SI” value with EV71 [1] amounted to 8.7. Also, in the series on Vero cells, the TC0 was 29.74 µM and 29.7 ± 2.2 µM. This compound registered a TC50 with Vero cells of 189 ± 17.3 µM.
`CC(C)c1ccc(OCCCCCCN2CCN(c3nccs3)CC2)cc1.Cl` [Compound 8e, 2-(4-(6-(4-Isopropylphenoxy)hexyl)piperazin-1-yl)thiazole hydrochloride] yielded a melting point of 135 to 137 °C. Also, in the series with EV71 [1], it took 4.3 µM to reach half-maximal inhibition (IC50) and the “EV71 SI” value was determined as 10.1. The compound further returned an IC50 with EV71 [1] (Enterovirus A, EV71, Vero) of 4.28 µM. Also, in the series with Vero cells, the TC0 was found to be 6.8 ± 0.8 µM; the TC50 is 43.08 µM and 43.1 ± 4.7 µM. For the same compound, in the series on CVA16, half-maximal inhibition (IC50) was put at 1.2 ± 0.5 µM and the “CVA16 SI” value amounted to 34.8. The compound also registered an IC50 with CVA16 (Enterovirus A, CVA16, Vero) of 1.24 µM.
`CCc1ccc(OCCCCCCN2CCN(c3nccs3)CC2)cc1.Cl` [Compound 8d, 2-(4-(6-(4-Ethylphenoxy)hexyl)piperazin-1-yl)thiazole hydrochloride] gave a melting point of 240 to 242 °C. Further, half-maximal inhibition with EV71 [1] (Enterovirus A, EV71, Vero) (IC50) was put at 4.4 ± 0.3 µM. The “EV71 SI” value in the series with EV71 [1] was determined as 12.7. In the series on Vero cells, the TC0 was 28.0 ± 2.5 µM and the TC50 came out at 56.0 ± 3.3 µM. Inhibition in the series with CVA16 (Enterovirus A, CVA16, Vero) was half-maximal at 14 ± 0.5 µM (IC50). For the same compound, the “CVA16 SI” value in the series on CVA16 worked out at 4.0.
Compound `CC(C)(C)c1ccc(OCCCCCCN2CCN(c3nccs3)CC2)cc1` [Compound 8f, 2-(4-(6-(4-tert-Butylphenoxy)hexyl)piperazin-1-yl)thiazole] returned a melting point of 30 to 32 °C. In the series with EV71 [1] (Enterovirus A, EV71, Vero), this compound displayed an IC50 of 3.9 ± 0.1 µM. In the series with EV71 [1], the “EV71 SI” value stood at 4.0. In the series with Vero cells, this compound gave a TC0 of 7.8 ± 0.4 µM and a TC50 of 15.6 ± 0.3 µM. In the series on CVA16 (Enterovirus A, CVA16, Vero), the IC50 was 7.8 ± 0.6 µM. In addition, the “CVA16 SI” value with CVA16 turned out to be 2.0.
In the series with EV71 [1] (Enterovirus A, EV71, Vero), `COC(=O)c1ccc(OCCC2CCN(c3cc(Cl)nnc3Cl)CC2)cc1` [Compound 9d] came in with an IC50 greater than 31.5 µM. Further, in the series on Vero cells, the TC0 was determined as 30.5 ± 2.0 µM and the TC50 amounted to 193 ± 19.3 µM. This compound had an IC50 in the series with CVA16 (Enterovirus A, CVA16, Vero) of 22.1 ± 1.1 µM. Further, the “CVA16 SI” value in the series on CVA16 is 8.7.
For `COc1ccc(OCCCCCN2CCN(c3nccs3)CC2)cc1` [Compound 8a, 2-(4-(5-(4-Methoxyphenoxy)pentyl)piperazin-1-yl)thiazole], the concentration for half-maximal inhibition (IC50) in the series on EV71 [1] (Enterovirus A, EV71, Vero) was determined as 100 ± 9 µM; in the series with CVA16 (Enterovirus A, CVA16, Vero), 69.2 ± 5.5 µM. Moreover, the “EV71 SI” value in the series on EV71 [1] is given as 2.8. Also, the TC0 in the series with Vero cells worked out at 138 ± 9.6 µM. Also, the TC50 in the series on Vero cells came out at 277 ± 2.2 µM. Besides, the “CVA16 SI” value with CVA16 is 4.0.
